Data set [1] has as its system succinoxidase system of beef heart mitochondria. The data set can be described thus: CoQ activity: restoring succinoxidase activity of pentane-extracted beef heart mitochondria (manometric). The data set is classed as biochemical. Also on record: key to CoQ10 Act. Index: activity index relative to CoQ10 standard. The following applies: for Activation at 400 nMoles %: 400 nmoles of analog, relative to the response to 400 nmoles CoQ10; for Maximum Activation: 400 nm of analog per flask, percent of the response to CoQ4; for CoQ10 Act. Index: calculated from relative effectiveness, activity in terms of that of CoQ10; for Estimated nMoles Required for 50% Activation: level required to reinstate approximately 50% of maximum succinoxidase activity, 0.65-0.85 mg PEBHM; for Relative Effectiveness: molar amounts of analog and CoQ4 required to restore the same level of succinoxidase to PEBHM, relative to CoQ4; for effectiveness / utilization in the succinoxidase mitochondrial system: interpretation of Table II. As for the experimental part: The CoQ activity of each analog was assessed by examining the ability of the analog to stimulate the succinoxidase activity of beef-heart mitochondria (BHM) from which the naturally occurring CoQ had been removed by pentane extraction. (Table I) Beef heart mitochondria were prepared by the method of Smith (Methods Enzymol., 10, 81 (1967). The pentane extraction was conducted as described by Szarkowska (Arch. Biochem. Biophys., 113, 519 (1966); PEBHM was frozen and used within 10 days of preparation, since pentane extraction decreases the stability of BHM. Succinoxidase activity was determined manometercally, using a Gilson differential respirometer (Iwamoto, Y., Hansen, I. L., Porter, T. H., and Folkers, K., Biochem. Biophys. Res. Comm., 58, 633 (1974), and is reported as […] of oxygen per minute per milligram of protein. A commercial soybean phospholipid preparation (Asolectin), dispersed by sonication (Fleischer, S. and Fleischer, B., Methods Enzymol., 10, 421 (1967), was used to provide phospholipid micelles, and test substances were added as solutions in ethanol. Within Table I are listed the CoQ activities of the analogs and selected reference compounds. The CoQ10 Activity Index is a measure of the effectiveness of the analogs, relative to the standard, in stimulating a submaximal response of succinoxidase activity. Specific activity of the succinoxidase system in response to stimulation by exogenous CoQ10 is given in footnote a of the Table. The quantity of analog to be added was chosen to provide a level of succinoxidase activity corresponding to the nearly linear portion of the activity: dose curve, in which succinoxidase activity stimulated is approximately proportional to the level of analog used. The second column lists the nanomolar quantity of analog required to provide a stimulation of about half of the maximum response. The relative response of the succinoxidase system to 400 nmol of each analog is listed in the third column of the Table. This level of analog is sufficient to insure significant excess over the stoichiometric amount, and maximum response to CoQ4 is obtained at one-tenth to one-twentieth of this dose level. The response to 400 nmol of CoQ10 is lower than is the response to other components listed. The very long side-chain of CoQ10, the natural coenzyme, may hinder the transport of exogenous CoQ10 to the active site.

Data set [2] deals with oxidative phosphorylation at site I (ETPH particles). The data set can be described thus: Assay of CoQ and analogs for oxidative phosphorylation at site I with ETPH particles. It is filed as biochemical. Set-up: Δ NADH / Δ G6P: unit not given here. Conditions: for biochemical effectiveness in the site I assay system: compared with CoQ1; for P/NADH Ratio / Δ G6P / Δ NADH / μmoles NADH /min/mg / μmoles NADH min/mg +Rotenone / % Inhibition by Rotenone: CoQ or analog 0.12 nM (footnote 0.12 mM); for μmoles NADH /min/mg: 200 μg ETPH particles, no rotenone; for μmoles NADH min/mg +Rotenone / % Inhibition by Rotenone: rotenone 2 μM. As for the experimental part: Assays were performed with 200 μg of ETPH particles as described by
Schatz and Racker (J. Biol. Chem., 241, 1429 (1966)). The concentration o
the CoQ compounds was 0.12 mM. Rotenone was added at 2 μM

The target of data set [3] is complex III (Bos taurus, UniProt P00157+P13272). Nature of the data set: Reduction of cytochrome c by reduced CoQ and analogs catalyzed by complex III. It is filed as biochemical. Conditions: for response of complex III system to the reduced analog as substrate: after reduction and extraction; for nMoles Cytochrome c Reduced/min / Non-enzymatic Rate of Cytochrome c Reduction: 10 μM reduced CoQ or analog; for nMoles Cytochrome c Reduced/min: 2 μg complex III, 8 μM cytochrome c; for Non-enzymatic Rate of Cytochrome c Reduction: blank without complex III; for % Inhibition by Antimycin A: antimycin A 1 μg/ml. As for the experimental part:
Reduction of cytochrome c was measured at 550-540 nm. The reaction mixtur
contained in 1.0 ml: […] KP1, pH 7.5; 0.05 mM EDTA; 8 μM
cytochrome c1; 10 μM reduced CoQ or analog and 2 μg complex
III. When indicated, antimycin A was added to the assay medium at 1
μg/ml. An extinction coefficient of 19 mM^-^1 was used for […]

Data set [4] is described as follows: Solubility in water. Conditions: in the site I assay system. The data set is classed as physicochemical.
Data set [5] in a line: Chemical stability. Conditions: compared with CoQ1 and CoQ2. It is filed as physicochemical.
Data set [6] has as its system periodontal disease. The following applies: Matsummura et al. 1973; cited from earlier work.
Data set [7] has as its system nutritionally deficient children who were anemic. Conditions: Majaj and Folkers 1968; cited from earlier work.
The test system of data set [8] is nutritionally dystrophic rabbit. Conditions: Farley et al. 1968; intravenous administration; cited from earlier work.
The conditions of data set [9]: human; cited from earlier work.
The conditions of data set [10]: literature / general knowledge; cited from earlier work.

These results are taken from patent US3974187A, “Synthetic analogs having the activity of naturally occurring forms of coenzyme Q” (priority 1975, dated 1976).

As for `CCCCCCCCCCCCCCCC1=C(C)C(=O)C(OC)=C(OC)C1=O` [Pentadecyl, 2,3-Dimethoxy-5-methyl-6-pentadecyl-1,4-benzoquinone], in data set [1], the “Activation at 400 nMoles %” value came to 121%, the “Maximum Activation” value worked out at 94%, the “CoQ10 Act. Index” value was 4.4 and the “Estimated nMoles Required for 50% Activation” value was 9.5 nmol. Moreover, the “Relative Effectiveness” value in data set [1] was 21%. Further, the “biochemical effectiveness in the site I assay system” value (from here on “biochemical effectiveness”) in data set [2] is listed as “not suitable or as effective”. Also, in data set [3], the “inhibition of complex III system” value is “no inhibition” and the “response of complex III system to the reduced analog as substrate” value (“response … to the reduced analog as substrate” below) is listed as “virtually unresponsive”. In [4], the “solubility in water” value is reported as “lower solubility in water”.
Consider `CCCCCC1=C(C)C(=O)C(OC)=C(OC)C1=O` [Pentyl, 2,3-Dimethoxy-5-methyl-6-pentyl-1,4-benzoquinone], for which, in data set [1], the “Activation at 400 nMoles %” value is on record as 110%, the “Maximum Activation” value was determined as 86%, the “CoQ10 Act. Index” value is given as 1.2 and the “effectiveness / utilization in the succinoxidase mitochondrial system” value (“effectiveness / utilization” for short) is “about as little effective as coenzyme Q10 itself”. Moreover, in data set [1], the “Estimated nMoles Required for 50% Activation” value is 35.1 nmol and the “Relative Effectiveness” value is listed as 5.7%. Also, in data set [2], the “P/NADH Ratio” value is on record as 0.44, the “Δ G6P” value was 0.036, the “Δ NADH” value came out at 0.082 and the “μmoles NADH /min/mg” value is given as 0.47 μmoles NADH /min/mg. In [2], the “μmoles NADH min/mg +Rotenone” value is recorded as 0.02 μmoles NADH min/mg, the “biochemical effectiveness” value is reported as “as biochemically effective as CoQ1” and the “% Inhibition by Rotenone” value is 95%. Besides, in data set [3], the “nMoles Cytochrome c Reduced/min” value was found to be 14.6 nmol/min, the “Non-enzymatic Rate of Cytochrome c Reduction” value was 0.2 nmol/min, the “response … to the reduced analog as substrate” value is reported as “excellent substrates” and the “% Inhibition by Antimycin A” value stood at 100%. Also, the “chemical stability” value in data set [5] (listed as 6-n-pentyl) is “superior to CoQ1 and CoQ2 in chemical stability”. Further, the “chemical stability” value in [5] (listed as PB) is “apparent greater stability”.
For `COC1=C(OC)C(=O)C(C/C=C(\C)CCCC(C)CCCC(C)CCCC(C)C)=C(C)C1=O` (centres unmarked) [H6 CoQ4, hexahydrocoenzyme Q4, reference compound], in data set [1], the “Activation at 400 nMoles %” value turned out to be 121%, the “Maximum Activation” value was 95%, the “CoQ10 Act. Index” value is given as 2.2 and the “Estimated nMoles Required for 50% Activation” value was 19.4 nmol. For the same compound, in data set [1], the “Relative Effectiveness” value worked out at 10.3%. Further, the “treatment of periodontal disease” value in data set [6] is listed as “enhanced treatment of periodontal disease”. Moreover, the “hematological activity” value in [7] is “showed hematological activity”.
Turning to `CCCCCCCCCCC1=C(C)C(=O)C(OC)=C(OC)C1=O` [Decyl, 2,3-Dimethoxy-5-methyl-6-decyl-1,4-benzoquinone], in [1], the “Activation at 400 nMoles %” value is on record as 123%, the “Maximum Activation” value turned out to be 96%, the “CoQ10 Act. Index” value is 11.7 and the “effectiveness / utilization” value is given as “effective”. Further, in data set [1], the “Estimated nMoles Required for 50% Activation” value is 3.6 nmol and the “Relative Effectiveness” value was 56%. In data set [2], the “P/NADH Ratio” value was 0.46, the “Δ G6P” value came out at 0.039, the “Δ NADH” value was 0.085 and the “μmoles NADH /min/mg” value came to 0.52 μmoles NADH /min/mg. Moreover, in data set [2], the “μmoles NADH min/mg +Rotenone” value turned out to be 0 μmoles NADH min/mg, the “biochemical effectiveness” value is “as biochemically effective as CoQ1” and the “% Inhibition by Rotenone” value is reported as 100%. In data set [3], the “nMoles Cytochrome c Reduced/min” value came to 29.0 nmol/min, the “Non-enzymatic Rate of Cytochrome c Reduction” value was 0.2 nmol/min, the “response … to the reduced analog as substrate” value is recorded as “excellent substrates” and the “% Inhibition by Antimycin A” value came out at 98%. Also, the “chemical stability” value in [5] (listed as 6-n-decyl) is “superior to CoQ1 and CoQ2 in chemical stability”. Moreover, the “chemical stability” value in data set [5] (listed as DB) is reported as “apparent greater stability”.
Consider `COC1=C(OC)C(=O)C(C/C=C(\C)CC/C=C(\C)CC/C=C(\C)CC/C=C(\C)CC/C=C(\C)CC/C=C(\C)CC/C=C(\C)CC/C=C(\C)CC/C=C(\C)CCC=C(C)C)=C(C)C1=O` [CoQ10, coenzyme Q10, reference compound], for which the “Specific Activity of the enzyme system” value in [1] (10 nmoles CoQ10/flask) is 0.160 μatm O2 /mg protein min. Also, the “Specific Activity of the enzyme system” value in data set [1] (20 nmoles CoQ10/flask) was determined as 0.248 μatm O2 /mg protein min. Also, the “Specific Activity of the enzyme system” value in [1] (30 nmoles CoQ10/flask) stood at 0.298 μatm O2 /mg protein min. Further, the “Specific Activity of the enzyme system” value in data set [1] (40 nmoles CoQ10/flask) is on record as 0.344 μatm O2 /mg protein min. In data set [1] (100 nmoles CoQ10/flask), the “Specific Activity of the enzyme system” value was found to be 0.488 μatm O2 /mg protein min. In addition, in data set [1], the “Activation at 400 nMoles %” value amounted to 100%, the “Maximum Activation” value is 78%, the “CoQ10 Act. Index” value is listed as 1.0 and the “effectiveness / utilization” value is on record as “poorly utilized”. For the same compound, in data set [1], the “Estimated nMoles Required for 50% Activation” value was 41.7 nmol and the “Relative Effectiveness” value is recorded as 4.8%. Further, in data set [1] (3.46 (nMoles) CoQ10), the “Activation at 3.46 nMoles” value is “no activation”. The “solubility in water” value in data set [4] is “too insoluble”. Moreover, the “therapeutic activity, saving the life of the dying dystrophic rabbit” value in [8] was “failed to elicit therapeutic activity”. Besides, the “hematological activity” value in data set [7] was “showed hematological activity”. Further, the “oral absorption” value in [9] is recorded as “inefficient”.
As for `COC1=C(OC)C(=O)C(C/C=C(\C)CC/C=C(\C)CCC=C(C)C)=C(C)C1=O` [CoQ3, coenzyme Q3], the “chemical stability of isoprenoid quinones” value in [10] is recorded as “relative chemical instability”. The “therapeutic activity, saving the life of the dying dystrophic rabbit” value in data set [8] was “did not save the life of the dying dystrophic rabbit”.
With `COC1=C(OC)C(=O)C(C/C=C(\C)CC/C=C(\C)CC/C=C(\C)CC/C=C(\C)CC/C=C(\C)CCC=C(C)C)=C(C)C1=O` [CoQ6, reference compound], the “biochemical effectiveness” value in [2] is listed as “not adequate”. Also, the “solubility in water” value in data set [4] was “somewhat more soluble”.
